Data on three compounds can be found in patent US10766866B2, “Deterrents for arthropods and marine organisms” (priority 2017, dated 2020).

The target in assay [1] is T1, AgAOctR (Anopheles octopamine receptor isoform A), cloned α-like OctR (Anopheles gambiae, UniProt Q7PRZ8).
T1 construct: Gq calcium readout
T1 sequence (Q7PRZ8 1-592): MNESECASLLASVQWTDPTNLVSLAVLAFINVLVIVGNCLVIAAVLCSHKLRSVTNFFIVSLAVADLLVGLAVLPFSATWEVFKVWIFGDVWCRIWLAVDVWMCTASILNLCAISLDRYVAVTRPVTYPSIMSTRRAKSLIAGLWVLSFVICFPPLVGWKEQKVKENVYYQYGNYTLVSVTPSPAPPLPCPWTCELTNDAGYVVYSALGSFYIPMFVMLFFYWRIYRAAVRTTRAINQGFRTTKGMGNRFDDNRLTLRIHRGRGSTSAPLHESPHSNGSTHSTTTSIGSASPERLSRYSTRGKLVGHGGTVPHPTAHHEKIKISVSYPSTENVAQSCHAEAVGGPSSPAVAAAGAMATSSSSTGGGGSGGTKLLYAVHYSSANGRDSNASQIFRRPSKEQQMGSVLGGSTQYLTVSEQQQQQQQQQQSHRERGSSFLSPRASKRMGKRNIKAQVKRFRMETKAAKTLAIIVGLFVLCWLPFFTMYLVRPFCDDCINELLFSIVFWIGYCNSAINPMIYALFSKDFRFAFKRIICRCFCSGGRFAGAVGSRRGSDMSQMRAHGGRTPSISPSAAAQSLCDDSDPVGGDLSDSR
The assay can be described thus: OctR activation: change in intracellular calcium (CALCIUM 6QR dye, FlexStation 3) in stably transfected mammalian cells. To be noted: agonist. Type of assay: cell-based. From the text:
(§1) Functional expression of cloned arthropod OctRs and human α2-ARs: The cDNAs for α-like OctRs from different arthropod species (e.g., Anopheles gambiae, Aedes aegypti, Periplaneta americana, Drosophila melanogaster, Ixodes scapularis, Balanus improvises) and for α2-AR subtypes from humans were individually subcloned into mammalian expression vectors. These plasmids, which harbor a resistance gene for the selection drug G418 and the cDNA sequence for the receptor of interest, were individually transfected into mammalian cells using a calcium phosphate precipitation method. G418 selection was then employed to generated stable clonal cell lines. Utilizing rapid filtration radioligand binding techniques, the cell surface density of receptor expression of the individual clonal cell lines was determined at equilibrium and those with similar high levels of expression were selected for further experiments. Briefly, binding conditions were 50 mM Tris binding buffer pH 7.4 at 25° C. and an ice-cold wash buffer 10 mM Tris-HCl, pH 7.4). The radioligand was [3H]rauwolscine and non-specific binding was determined in the presence of 10 μM atipamezole. Following the addition of membranes prepared from the clonal cell lines, samples were mixed and allowed 2 hr. to reach equilibrium before rapid filtration and washing through 0.3% PEI-treated GF/C filters. The radioactivity remaining on the filters was quantified by scintillation counting. Receptor density (Bmax) was back calculated knowing the specific activity of the radioligand and applying the equation for a square hyperbola model: Bmax=(Y·(KD+X))/X, where Y is [specifically bound radioligand] and X=[radio ligand concentration]. The affinity (KD) for the radioligand for each receptor was determined in separate saturation isotherm binding experiments using the same binding conditions as describe above.
(§2) Measurement of OctR activation by measuring changes in intracellular calcium: Activation of arthropod α-like OctRs increases intracellular calcium via a Gq-coupling mechanism. This involves activation of phospholipase C leading to an increase in intracellular inositol triphosphate (IP3) which then activates IP3-gated calcium channels in the endoplasmic reticulum causing a transient rise in intracellular calcium. These changes in intracellular calcium upon OctR activation were measured by loading cells with intracellular calcium sensitive dye CALCIUM 6QR and reading the change in calcium-induced fluorescent signal over time on a FlexStation 3 microplate reader.
(In general: Calcium assays in cells follow changes in intracellular calcium, usually with a dye or a luminescent sensor.)

Assay [2] deals with T2, human α2C adrenergic receptor (α2c-AR) (Homo sapiens, UniProt P18825).
T2 construct: expressed in transfected cells
T2 sequence (P18825 1-462): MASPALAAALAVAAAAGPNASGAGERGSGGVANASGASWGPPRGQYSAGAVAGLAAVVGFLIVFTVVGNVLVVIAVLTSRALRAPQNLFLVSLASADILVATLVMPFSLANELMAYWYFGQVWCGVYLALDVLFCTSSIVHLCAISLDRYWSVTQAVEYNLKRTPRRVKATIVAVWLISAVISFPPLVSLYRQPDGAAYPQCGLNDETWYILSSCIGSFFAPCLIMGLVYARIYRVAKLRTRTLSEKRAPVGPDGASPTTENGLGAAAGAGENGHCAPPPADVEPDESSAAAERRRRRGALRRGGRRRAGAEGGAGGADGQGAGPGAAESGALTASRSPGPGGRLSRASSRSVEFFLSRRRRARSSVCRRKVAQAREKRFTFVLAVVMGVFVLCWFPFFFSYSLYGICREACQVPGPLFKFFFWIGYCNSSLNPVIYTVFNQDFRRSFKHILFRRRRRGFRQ
In words: Measurement of intracellular cAMP (cAMP-Glo). Type of assay: cell-based, Homo sapien. To be noted: in words; normalized to 1 μM forskolin; FIG. 8.
Excerpt: as §1, with “Briefly, binding conditions were 50 mM Tris binding buffer pH 7.4 at 25° C. and an ice-cold wash buffer 10 mM Tris-HCl, pH 7.4).” left out, “Following the addition of membranes prepared from the clonal cell lines, samples were mixed and allowed 2 hr. to reach equilibrium before rapid filtration and washing through 0.3% PEI-treated GF/C filters.” left out, “The affinity (KD) for the radioligand for each receptor was determined in separate saturation isotherm binding experiments using the same binding conditions as describe above.” left out

In assay [3] the target is T3, Hsα2C-AR (human α2C adrenergic receptor) (Homo sapiens, UniProt P18825).
T3 construct: expressed in transfected cells
T3 sequence (P18825 1-462): T2 sequence (P18825 1-462)
The assay can be described thus: [3H]rauwolscine competition radioligand binding, membranes of clonal mammalian cell lines. Conditions: 50 mM Tris pH 7.4, 25° C., 2 hr, Cheng-Prusoff.
Excerpt: as §1
(§3) Measurement of compound affinities by competition radioligand binding: Affinities (Ki) for compounds were determined by [3H]rauwolscine competition binding using the same binding conditions as described above. The Ki values were calculated from IC50 values using the Cheng-Prusoff equation.

The target of assay [4] is T4, Hsα2A-AR (human α2A adrenergic receptor) (Homo sapiens, UniProt P08913).
T4 construct: expressed in transfected cells; membranes
T4 sequence (P08913 whole entry): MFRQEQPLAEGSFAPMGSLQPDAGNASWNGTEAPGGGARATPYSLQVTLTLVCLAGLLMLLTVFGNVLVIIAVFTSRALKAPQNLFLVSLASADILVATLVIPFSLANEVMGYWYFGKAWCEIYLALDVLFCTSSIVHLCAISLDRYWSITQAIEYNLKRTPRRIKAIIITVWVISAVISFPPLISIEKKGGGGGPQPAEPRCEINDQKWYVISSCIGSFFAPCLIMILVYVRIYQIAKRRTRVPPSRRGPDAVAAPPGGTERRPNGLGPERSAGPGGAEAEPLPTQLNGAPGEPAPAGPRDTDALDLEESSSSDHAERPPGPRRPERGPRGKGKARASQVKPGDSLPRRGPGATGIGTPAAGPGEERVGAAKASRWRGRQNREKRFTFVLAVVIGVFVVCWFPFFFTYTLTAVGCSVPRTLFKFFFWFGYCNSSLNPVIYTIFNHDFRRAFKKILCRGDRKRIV
The description is as above. To be noted: 50 mM Tris pH 7.4, 25° C., 2 hr, Cheng-Prusoff.
Excerpt: as §1, §3

In assay [5] the test system is IsTOctR (Ixodes octopamine receptor), cloned α-like OctR. The assay can be described thus: OctR activation: change in intracellular calcium (CALCIUM 6QR dye, FlexStation 3) in stably transfected mammalian cells. To be noted: agonist, read-out: IsTOctR (Ixodes octopamine receptor) EC50. Type of assay: cell-based, Ixodes scapularis.
Excerpt: as §1, §2

Assay [6] deals with T2, human α2C adrenergic receptor (α2c-AR). The assay can be described thus: Intracellular cyclic AMP (cAMP-Glo) functional assay, stably transfected mammalian cells. It is filed as cell-based.
Excerpt: as §1, with “Briefly, binding conditions were 50 mM Tris binding buffer pH 7.4 at 25° C. and an ice-cold wash buffer 10 mM Tris-HCl, pH 7.4).” left out, “Following the addition of membranes prepared from the clonal cell lines, samples were mixed and allowed 2 hr. to reach equilibrium before rapid filtration and washing through 0.3% PEI-treated GF/C filters.” left out, “The affinity (KD) for the radioligand for each receptor was determined in separate saturation isotherm binding experiments using the same binding conditions as describe above.” left out

Assay [7] deals with AeOctR (Aedes octopamine receptor), cloned α-like OctR. In words: OctR activation: change in intracellular calcium (CALCIUM 6QR dye, FlexStation 3) in stably transfected mammalian cells. It is filed as cell-based, Aedes aegypti. Conditions: agonist.
Excerpt: as §1, §2

Assay [8] has as its system Ixodes scapularis tick OctR (IsTOctR). In words: OctR activation, change in intracellular calcium. Type of assay: cell-based.
Excerpt: as §1, §2

Assay [9] relates to Anopheles gambiae mosquito isoform A OctR (AgAOctR). In words: OctR activation, change in intracellular calcium. Type of assay: cell-based. Conditions: for selectivity Ki(Hsα2-AR)/EC50(OctR): AgAOctR over Homo sapien α2-AR subtypes.
Excerpt: as §1, §2

Another assay has as its system Balanus OctR (BiOctR). In words: OctR activation, change in intracellular calcium. Type of assay: cell-based, Balanus improvises. Conditions: 100 μM; compared with octopamine.
Excerpt: as §1, with “Briefly, binding conditions were 50 mM Tris binding buffer pH 7.4 at 25° C. and an ice-cold wash buffer 10 mM Tris-HCl, pH 7.4).” left out, “Following the addition of membranes prepared from the clonal cell lines, samples were mixed and allowed 2 hr. to reach equilibrium before rapid filtration and washing through 0.3% PEI-treated GF/C filters.” left out, “The affinity (KD) for the radioligand for each receptor was determined in separate saturation isotherm binding experiments using the same binding conditions as describe above.” left out

Assay [10] deals with Periplaneta americana OctR (PaOctR). In words: OctR activation, change in intracellular calcium. It is filed as cell-based. To be noted: 100 μM; normalized to octopamine at a supersaturating concentration; FIG. 1D.
Excerpt: as §1, §2

Assay [11] has as its target T5, Drosophila melanogaster α-like OctR (DmOctR) (Drosophila melanogaster, UniProt Q7JQF1).
T5 construct: expressed in transfected cells
T5 sequence (Q7JQF1 1-645): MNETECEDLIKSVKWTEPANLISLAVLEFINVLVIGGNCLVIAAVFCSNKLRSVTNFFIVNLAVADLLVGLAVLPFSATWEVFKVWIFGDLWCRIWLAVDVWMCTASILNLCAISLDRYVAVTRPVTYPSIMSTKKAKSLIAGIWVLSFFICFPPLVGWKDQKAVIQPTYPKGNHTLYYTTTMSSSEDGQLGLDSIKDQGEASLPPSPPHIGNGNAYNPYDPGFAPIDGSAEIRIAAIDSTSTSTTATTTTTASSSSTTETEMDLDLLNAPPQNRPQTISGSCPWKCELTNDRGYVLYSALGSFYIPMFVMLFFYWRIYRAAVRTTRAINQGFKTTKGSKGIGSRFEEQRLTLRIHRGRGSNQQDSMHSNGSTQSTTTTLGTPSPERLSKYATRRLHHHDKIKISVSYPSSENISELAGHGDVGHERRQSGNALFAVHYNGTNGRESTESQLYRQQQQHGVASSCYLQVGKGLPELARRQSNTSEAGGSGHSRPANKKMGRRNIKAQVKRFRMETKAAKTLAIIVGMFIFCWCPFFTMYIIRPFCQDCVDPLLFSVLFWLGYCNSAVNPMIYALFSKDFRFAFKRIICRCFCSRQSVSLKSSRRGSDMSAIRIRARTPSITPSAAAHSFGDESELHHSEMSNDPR
In words: OctR activation, change in intracellular calcium. It is filed as cell-based. To be noted: 100 μM; normalized to octopamine at a supersaturating concentration; FIG. 1A.
Excerpt: as §1, §2

The test system of assay [12] is Aedes aegypti α-like OctR (AeOctR). The assay can be described thus: OctR activation, change in intracellular calcium. Type of assay: cell-based. To be noted: 100 μM; normalized to octopamine at a supersaturating concentration; FIG. 1B.
Excerpt: as §1, §2

A further assay concerns α2-ARs. The assay can be described thus: Functional profile at α2-ARs (preliminary studies). It is filed as cell-based, Homo sapien.
Excerpt: as §1, with “Briefly, binding conditions were 50 mM Tris binding buffer pH 7.4 at 25° C. and an ice-cold wash buffer 10 mM Tris-HCl, pH 7.4).” left out, “Following the addition of membranes prepared from the clonal cell lines, samples were mixed and allowed 2 hr. to reach equilibrium before rapid filtration and washing through 0.3% PEI-treated GF/C filters.” left out, “The affinity (KD) for the radioligand for each receptor was determined in separate saturation isotherm binding experiments using the same binding conditions as describe above.” left out

A further assay concerns α-like OctRs. In words: OctR activation, change in intracellular calcium (statements on OctRs in general). Type of assay: cell-based. To be noted: relative to fluorinated AZ1411.
Excerpt: as §1, with “Briefly, binding conditions were 50 mM Tris binding buffer pH 7.4 at 25° C. and an ice-cold wash buffer 10 mM Tris-HCl, pH 7.4).” left out, “Following the addition of membranes prepared from the clonal cell lines, samples were mixed and allowed 2 hr. to reach equilibrium before rapid filtration and washing through 0.3% PEI-treated GF/C filters.” left out, “The affinity (KD) for the radioligand for each receptor was determined in separate saturation isotherm binding experiments using the same binding conditions as describe above.” left out

For `C=C(c1cnc[nH]1)c1cccc(F)c1C` [AZ1411], the EC50 (in general, the concentration that produces a half-maximal response) was 0.11 ± 0.058 nM in [1], 2.9 ± 1.3 nM in [5], 931 nM in [6] and 81 ± 46 nM in assay [7]. Further, in assay [2], the “efficacy (change in intracellular cyclic AMP)” value is recorded as “partial agonist”. Besides, the “potency (change in intracellular cyclic AMP)” value in assay [2] was “low potency”. For the same compound, the Ki (as a rule, the dissociation constant of the complex between target and ligand, obtained from inhibition or displacement) in [3] was found to be 3530 ± 1590 nM; in assay [4], 494 ± 177 nM. In addition, the “selectivity Ki(Hsα2-AR)/EC50(OctR)” value in assay [8] (Ixodes tick OctR over Homo sapien α2-AR subtypes) and in assay [9] was “highly selective” throughout.

On to `CCC(C)OC(=O)N1CCCCC1CCO` (stereo not drawn) [picaridin, 1-(1-methylpropoxycarbonyl)-2-(2-hydroxyethyl)piperidine], for which the “agonist response (change in intracellular calcium) relative to octopamine” value in the assay with Balanus OctR (BiOctR) was “significant agonist responses”; in assay [8] (100 μM, normalized to octopamine at a supersaturating concentration, FIG. 1C) it was “did not produce a significant agonist response”; in assay [10], “did not produce a significant agonist response”; in [11], “did not produce a significant agonist response”; in assay [12], “did not produce a significant agonist response”.

Consider `C=C(c1cnc[nH]1)c1cccc(Cl)c1C` [AZ1436], for which the EC50 was 0.025 ± 0.0019 nM in assay [1] and 1.8 ± 0.83 nM in assay [5]. Also, the “functional mode at α2-ARs” value with α2-ARs was “likely an antagonist”. Besides, the “potency for OctRs compared with AZ1411” value with α-like OctRs is given as 2-4. Also, the “potency (EC50)” value in [8] (in words, FIG. 9) is “potent”; in assay [9] (in words, FIGS. 9-12), “potent”. Further, the “efficacy (full/partial agonist)” value in assay [8] (in words, FIGS. 9, 11) is on record as “full agonist”; in assay [9] (in words, FIGS. 9-12), “full agonist”. In addition, the “selectivity Ki(Hsα2-AR)/EC50(OctR)” value in [9] was “highly selective”.
